The values that follow come from US20220000957A1, “COMPOSITION FOR ALLEVIATING SYMPTOMS OF ANDROPAUSE, CONTAINING EXTRACT OF FICUS AURICULATA LOUR. AS ACTIVE INGREDIENT” (KOREA RESEARCH INSTITUTE OF BIOSCiENCE AND BIOTECHNOLOGY, priority 2018, published 2022).

SMILES strings stand for the structures. Several values for one entry are separate records, joined by “and”; a condition that tells them apart may be missing. Equal entries are not always repeated.

Assay [1] deals with prostate-specific antigen (PSA). Nature of the assay: Inhibition of testosterone-induced prostate-specific antigen (PSA) expression in LNCaP cells, real-time RT-PCR. Type of assay: cell-based. The following applies: testosterone 100 nM, 24 hours, no extract. Here is the method: Reverse transcription-real-time polymerase chain reaction (real-time RT-PCR) was used to measure the inhibition of expression of prostate-specific antigen (PSA) in testosterone-induced prostate cancer cell lines (LNCaP cells). Specifically, the prostate cancer cell line (LNCaP cells) was dispensed to a 6 well plate at 5×10^5 cells/well. After incubating for 24 hours in an incubator under conditions of 37° C. and 5% CO2, Ficus auriculata Lour. fruit extract of each country of origin (Vietnam, Nepal, Myanmar, Bangladesh, China, Laos) was added at 100 μg/ml and incubated for 3 hours. Testosterone 100 nM was added to each well except for the control and incubated for 24 hours. After incubation for 24 hours, the supernatant was removed, total RNA was extracted using Trizol, and cDNA was synthesized using PrimeScript RT Master Mix (Takara, Japan). The synthesized cDNA was subjected to real-time polymerase chain reaction using TOPreal qPCR 2×PreMIX (Enzynomics, Korea).
Reverse transcription-real-time polymerase chain reaction (real-time RT-PCR) was used to measure the inhibition of expression of prostate-specific antigen (PSA) in testosterone-induced prostate cancer cell lines (LNCaP cells). Specifically, the prostate cancer cell line (LNCaP cells) was dispensed to a 6 well plate at 5×10^5 cells/well. […]
(In general: Real-time PCR tracks product formation cycle by cycle.)

For the next assay, the system named is androgen receptor (AR). Nature of the assay: Androgen receptor (AR) expression in LNCaP cells, real-time RT-PCR. The conditions noted are these: no extract. It counts as cell-based.

For the compound `C[C@]12CC[C@H]3[C@@H](CCC4=CC(=O)CC[C@@]43C)[C@@H]1CC[C@@H]2O` [testosterone], the “PSA expression increased by testosterone” value in assay [1] is 190% and 180%. Moreover, the “expression of AR increased by testosterone” value in the assay with androgen receptor (AR) came to 140%.
